# Data taken from ChEMBL document CHEMBL1201862, “PubChem BioAssay data set” (2004).
#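 Method: 48-hour compound exposure of cells in 96-well plates, five concentrations, linear interpolation of endpoints. Here, GI50 denotes the concentration required for 50% inhibition of growth.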 Active and inactive are the calls of the source. Rule as the data show it: active = GI50 up to about 1.1 µM and inactive = higher.
# Columns and labels:
# Test in all cases: NCI anticancer screen, dose series, 48 h
# RXF 393 = test system: RXF 393
# SK-OV-3 = test system: SK-OV-3
# NCI/ADR-RES = test system: NCI/ADR-RES
# A498 = test system: A498
# CCRF-CEM = test system: CCRF-CEM
# SK-MEL-28 = test system: SK-MEL-28
# SK-MEL-5 = test system: SK-MEL-5
# HCT-116 = test system: HCT-116
# UACC-257 = test system: UACC-257
# SN12C = test system: SN12C
# MDA-MB-435 = test system: MDA-MB-435
# K562 = test system: K562
# OVCAR-8 = test system: OVCAR-8
# DU-145 = test system: DU-145
# A549 = test system: A549
# SNB-75 = test system: SNB-75
# ACHN = test system: ACHN
# 786-0 = test system: 786-0
# Malme-3M = test system: Malme-3M
# MDA-N = test system: MDA-N
Compound,GI50 (RXF 393),GI50 (SK-OV-3),GI50 (NCI/ADR-RES),GI50 (A498),GI50 (CCRF-CEM),GI50 (SK-MEL-28),GI50 (SK-MEL-5),GI50 (HCT-116),GI50 (UACC-257),GI50 (SN12C),GI50 (MDA-MB-435),GI50 (K562),GI50 (OVCAR-8),GI50 (DU-145),GI50 (A549),GI50 (SNB-75),GI50 (ACHN),GI50 (786-0),GI50 (Malme-3M),GI50 (MDA-N)
Cc1ccc2ccc3ccc(C)nc3c2n1 [NEOCUPROINE],> 42 µM (inactive),> 100 µM (inactive),> 100 µM (inactive),> 40.1 µM (inactive),0.59 µM (active),> 100 µM (inactive),> 26.2 µM (inactive),0.349 µM (active),1.86 µM (inactive),> 100 µM (inactive),> 100 µM (inactive),0.542 µM (active),> 26.9 µM (inactive),> 100 µM (inactive),7.11 µM (inactive),> 52 µM (inactive),> 100 µM (inactive),> 29.7 µM (inactive),> 100 µM (inactive),> 100 µM (inactive)
COC12C=CC(CC1)C(C)(C)C2=O (stereo not given),> 100 µM (inactive),> 100 µM (inactive),> 100 µM (inactive),> 100 µM (inactive),> 100 µM (inactive),> 100 µM (inactive),> 100 µM (inactive),> 100 µM (inactive),> 100 µM (inactive),> 100 µM (inactive),> 100 µM (inactive),> 100 µM (inactive),> 100 µM (inactive),> 100 µM (inactive),> 100 µM (inactive),> 100 µM (inactive),> 100 µM (inactive),> 100 µM (inactive),> 100 µM (inactive),> 100 µM (inactive)
COC(=O)c1c(C(=O)OC)c2ccccn2c1-c1cc(OC)c(Br)c(=O)o1,> 100 µM (inactive),> 100 µM (inactive),> 100 µM (inactive),> 100 µM (inactive),> 100 µM (inactive),> 100 µM (inactive),> 100 µM (inactive),> 100 µM (inactive),> 100 µM (inactive),> 100 µM (inactive),> 100 µM (inactive),> 100 µM (inactive),> 100 µM (inactive),> 100 µM (inactive),> 100 µM (inactive),15.1 µM (inactive),> 100 µM (inactive),> 100 µM (inactive),> 100 µM (inactive),> 100 µM (inactive)
C=CCc1cc(C(Cc2ccccc2)NC(C)C)cc(OCc2ccccc2)c1OCc1ccccc1 (stereo not given),14.4 µM (inactive),14 µM (inactive),16.3 µM (inactive),15.3 µM (inactive),15.9 µM (inactive),16.4 µM (inactive),16.6 µM (inactive),16.4 µM (inactive),18.8 µM (inactive),15.6 µM (inactive),15.7 µM (inactive),16.8 µM (inactive),17 µM (inactive),16.2 µM (inactive),16.7 µM (inactive),13.2 µM (inactive),16.9 µM (inactive),16.6 µM (inactive),15.5 µM (inactive),13.2 µM (inactive)
O=C1c2cc3c(cc2CC12Cc1ccccc1C2)CCC3,22.1 µM (inactive),> 100 µM (inactive),28.4 µM (inactive),34.4 µM (inactive),30.5 µM (inactive),57.4 µM (inactive),18.3 µM (inactive),22.2 µM (inactive),20.1 µM (inactive),29.1 µM (inactive),28.2 µM (inactive),44.3 µM (inactive),21.2 µM (inactive),52 µM (inactive),44.4 µM (inactive),31.6 µM (inactive),27.8 µM (inactive),21.1 µM (inactive),28.1 µM (inactive),27.3 µM (inactive)
O=C(O)c1cc(O)nc(S)n1,> 100 µM (inactive),> 100 µM (inactive),> 100 µM (inactive),> 100 µM (inactive),> 100 µM (inactive),> 100 µM (inactive),> 100 µM (inactive),> 100 µM (inactive),> 100 µM (inactive),> 100 µM (inactive),> 100 µM (inactive),> 100 µM (inactive),> 100 µM (inactive),> 100 µM (inactive),> 100 µM (inactive),94.2 µM (inactive),> 100 µM (inactive),> 100 µM (inactive),> 100 µM (inactive),> 100 µM (inactive)
CC(=O)OC1=c2ccccc2=C(O)C2C1C=NN2C(C)=O (stereo not given),> 100 µM (inactive),> 100 µM (inactive),> 100 µM (inactive),> 100 µM (inactive),> 100 µM (inactive),> 100 µM (inactive),> 100 µM (inactive),> 100 µM (inactive),> 100 µM (inactive),> 100 µM (inactive),> 100 µM (inactive),18.4 µM (inactive),> 100 µM (inactive),> 100 µM (inactive),> 100 µM (inactive),36.7 µM (inactive),> 100 µM (inactive),> 100 µM (inactive),44.3 µM (inactive),> 100 µM (inactive)
CCN(CC)CCCC(C)Nc1c2ccc(Cl)cc2nc2ccc(OC)cc12 (stereo not given),1.2 µM (inactive),4.84 µM (inactive),1.86 µM (inactive),2.48 µM (inactive),1 µM (active),1.61 µM (inactive),1.71 µM (inactive),0.61 µM (active),1.85 µM (inactive),2.32 µM (inactive),1.47 µM (inactive),0.824 µM (active),1.05 µM (active),3.56 µM (inactive),1.65 µM (inactive),1.47 µM (inactive),2.42 µM (inactive),0.993 µM (active),1.9 µM (inactive),1.78 µM (inactive)
O=C(O)C(Cc1ccc2c(c1)CCC2)(Cc1ccc2c(c1)CCC2)C(=O)O,> 100 µM (inactive),> 100 µM (inactive),> 100 µM (inactive),> 100 µM (inactive),> 100 µM (inactive),> 100 µM (inactive),> 100 µM (inactive),> 100 µM (inactive),> 100 µM (inactive),> 100 µM (inactive),> 100 µM (inactive),> 100 µM (inactive),> 100 µM (inactive),> 100 µM (inactive),> 100 µM (inactive),> 100 µM (inactive),> 100 µM (inactive),> 100 µM (inactive),> 100 µM (inactive),> 100 µM (inactive)
CCCC(O)[C@@]1(CC)CC(C)C(O)(C2(C)C[C@H](C)[C@@H](C(CC)C(=O)C(C)[C@@H](O)[C@H](C)C3OC(O)(C(CC)C(=O)O)[C@@H](C)C(O)C3CC)O2)O1 (stereo not given in full),0.0863 µM (active),2.15 µM (inactive),0.0792 µM (active),0.412 µM (active),0.0324 µM (active),0.49 µM (active),0.219 µM (active),0.187 µM (active),0.138 µM (active),0.12 µM (active),0.151 µM (active),0.0955 µM (active),0.444 µM (active),0.0885 µM (active),0.123 µM (active),0.0611 µM (active),0.521 µM (active),0.414 µM (active),0.0982 µM (active),0.414 µM (active)
Cc1c(-c2ccccc2)n[nH]c1NC1(C)C(=O)N(/N=C/c2ccccc2)N=C1c1ccccc1 (stereo not given),> 29.8 µM (inactive),> 100 µM (inactive),43.8 µM (inactive),> 83.4 µM (inactive),25.9 µM (inactive),> 100 µM (inactive),7.96 µM (inactive),> 59.2 µM (inactive),> 100 µM (inactive),> 19.9 µM (inactive),52.7 µM (inactive),6.15 µM (inactive),> 100 µM (inactive),> 100 µM (inactive),7.4 µM (inactive),> 100 µM (inactive),24.7 µM (inactive),> 100 µM (inactive),> 100 µM (inactive),97.5 µM (inactive)
Cc1cn(CCCC2=NCCCN2)c(=O)[nH]c1=O,> 100 µM (inactive),> 100 µM (inactive),> 100 µM (inactive),> 100 µM (inactive),> 100 µM (inactive),> 100 µM (inactive),> 100 µM (inactive),> 100 µM (inactive),> 100 µM (inactive),> 100 µM (inactive),> 100 µM (inactive),> 100 µM (inactive),> 100 µM (inactive),> 100 µM (inactive),> 100 µM (inactive),> 100 µM (inactive),> 100 µM (inactive),> 100 µM (inactive),> 100 µM (inactive),> 100 µM (inactive)
O=C(OC12CC3CC(CC(C3)C1)C2)c1ccc(NCc2cc(O)ccc2O)cc1,0.288 µM (active),2.99 µM (inactive),0.637 µM (active),1.87 µM (inactive),0.0383 µM (active),0.489 µM (active),1.24 µM (inactive),1.17 µM (inactive),1.24 µM (inactive),1.42 µM (inactive),1.27 µM (inactive),0.622 µM (active),1.1 µM (active),3.85 µM (inactive),3.97 µM (inactive),0.607 µM (active),0.968 µM (active),1.15 µM (inactive),0.625 µM (active),1.32 µM (inactive)
OCCCNc1[nH]cnc2nncc1-2,> 100 µM (inactive),> 100 µM (inactive),> 100 µM (inactive),> 100 µM (inactive),> 100 µM (inactive),> 100 µM (inactive),> 100 µM (inactive),> 100 µM (inactive),> 100 µM (inactive),> 100 µM (inactive),> 100 µM (inactive),> 100 µM (inactive),> 100 µM (inactive),> 100 µM (inactive),> 100 µM (inactive),> 100 µM (inactive),> 100 µM (inactive),> 100 µM (inactive),> 100 µM (inactive),> 100 µM (inactive)
